Experimental data from the supplement of paper PMC10307832.

How the values were obtained:
Test in all cases: relative viability (nuclei count vs DMSO), 5 days (fraction); higher = more cells survive
[1] = compound: CCn1c(-c2nonc2N)nc2cnc(Oc3cccc(NC(=O)c4ccc(OCCN5CCOCC5)cc4)c3)cc21 + CC(=O)c1c(C)c2cnc(Nc3ccc(N4CCNCC4)cn3)nc2n(C2CCCC2)c1=O [Palbociclib] (partner 0.5 µM)
Method in brief: (§1)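 Relative viability was taken as the ratio of nuclei in treated wells to nuclei in vehicle wells. Lung cancer cell lines in 1536-well plates received compounds by pin tool one day after seeding, either one drug alone or a fixed anchor-drug dose plus five library-drug doses (not always all listed) in √10 steps. Nuclei were counted on 4× images after 5 days of treatment, and values are medians of duplicate plates.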

[2] = compound: N=C1NC(=O)/C(=C/c2ccc(O)cc2)S1 [Mirin] + Nc1nc2[nH]cc(CCc3ccc(C(=O)N[C@@H](CCC(=O)O)C(=O)O)cc3)c2c(=O)[nH]1 [Pemetrexed] (partner 0.2 µM)
Method in brief: as §1

[3] = compound: CCC1=CN=CN=C1N2CCN(CC2)CC3=NC4=C(N3)C=C(C=C4)C(F)(F)F + CC1(C)CCC(c2ccc(Cl)cc2)=C(CN2CCN(c3ccc(C(=O)NS(=O)(=O)c4ccc(N[C@H](CCN5CCOCC5)CSc5ccccc5)c(S(=O)(=O)C(F)(F)F)c4)cc3)CC2)C1 [Navitoclax] (partner 0.5 µM)
Method in brief: as §1

[4] = compound: CCn1c(-c2nonc2N)nc2cnc(Oc3cccc(NC(=O)c4ccc(OCCN5CCOCC5)cc4)c3)cc21 + CC1(C)CCC(c2ccc(Cl)cc2)=C(CN2CCN(c3ccc(C(=O)NS(=O)(=O)c4ccc(N[C@H](CCN5CCOCC5)CSc5ccccc5)c(S(=O)(=O)C(F)(F)F)c4)cc3)CC2)C1 [Navitoclax] (partner 0.5 µM)
Method in brief: as §1

| Cell Line | relative viability ([1]; first compound 0.04 µM) | relative viability ([1]; first compound 0.1265 µM) | relative viability ([1]; first compound 0.4 µM) | relative viability ([1]; first compound 1.265 µM) | relative viability ([1]; first compound 4 µM) | relative viability ([2]; first compound 0.25 µM) | relative viability ([2]; first compound 2.5 µM) | relative viability ([2]; first compound 7.906 µM) | relative viability ([2]; first compound 25 µM) | relative viability ([3]; first compound 0.04 µM) | relative viability ([3]; first compound 0.1265 µM) | relative viability ([3]; first compound 0.4 µM) | relative viability ([3]; first compound 1.265 µM) | relative viability ([3]; first compound 4 µM) | relative viability ([4]; first compound 0.04 µM) | relative viability ([4]; first compound 0.1265 µM) | relative viability ([4]; first compound 0.4 µM) | relative viability ([4]; first compound 1.265 µM) | relative viability ([4]; first compound 4 µM) | relative viability ([2]; first compound 0.7906 µM) |
| --- | --- | --- | --- | --- | --- | --- | --- | --- | --- | --- | --- | --- | --- | --- | --- | --- | --- | --- | --- | --- |
| NCI-H1648 | 0.277 | 0.245 | 0.231 | 0.474 | 0.388 | 0.76 | 0.853 | 0.678 | 0.55 | – | – | – | – | – | – | – | – | – | – | – |
| NCI-H322M | 0.543 | 0.51 | 0.487 | 0.451 | 0.486 | 0.633 | 0.615 | 0.713 | 0.568 | 1.26 | 1.1 | 1.13 | 1.29 | 1.2 | 1.39 | 1.16 | 1.28 | 1.26 | 1.32 | 0.528 |
| NCI-H2405 | 0.572 | 0.361 | 0.304 | 0.234 | 0.222 | 1.1 | 1.16 | 1.14 | 1.07 | 0.86 | 0.937 | 0.834 | – | 0.997 | 1.16 | 0.361 | 0.367 | 0.183 | 0.144 | – |
| HCC-44 | 1.01 | 1.01 | 1.02 | 1.08 | 0.878 | 0.604 | 0.677 | 0.633 | 0.694 | 1.01 | 1.06 | 0.895 | 0.823 | 0.919 | 0.944 | 1.07 | 1.14 | 1 | 0.963 | 0.835 |
| HCC-78 | 0.446 | 0.445 | 0.525 | 0.533 | 0.452 | 0.952 | 0.882 | 0.903 | 0.871 | 0.654 | 0.832 | 0.831 | 0.476 | 0.525 | 1.05 | 0.782 | 0.848 | 0.878 | 0.926 | 0.882 |
| COR-L23 | 0.308 | 0.25 | 0.129 | 0.173 | 0.127 | 0.2 | 0.209 | 0.187 | 0.204 | 1.02 | 0.853 | 1.02 | 0.959 | 0.968 | 1.04 | 0.817 | 0.59 | 0.172 | 0.157 | 0.204 |
| NCI-H1993 | 0.479 | 0.659 | 0.642 | 0.695 | 0.626 | 0.625 | 0.578 | 0.541 | 0.584 | 1.16 | 0.934 | 0.792 | 0.817 | 0.778 | 0.795 | 0.941 | – | 0.902 | 0.787 | 0.633 |
| NCI-H3122 | 0.209 | 0.182 | 0.184 | 0.19 | 0.19 | 0.195 | 0.209 | 0.208 | 0.264 | 1.02 | 0.996 | 0.997 | 0.987 | 1.03 | 1.02 | 1.03 | 1.05 | 0.974 | 0.979 | 0.213 |
